Measured values taken from ChEMBL document CHEMBL1201862, “PubChem BioAssay data set” (2004).
Entries after “also recorded” stand apart in the source; their conditions may differ. Activity calls are given as the source filed them.

Legend:
[1] = biological target: Cytochrome P450 2C19 (Homo sapiens, UniProt P33261); experiment: Cytochrome panel assay with activity outcomes. Panel member name: p450-cyp2c19 Compounds with AC50 equal or less than 10 uM are considered active; type: functional
[2] = biological target: Cytochrome P450 2D6 (Homo sapiens, UniProt P10635);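 also: CYP2D6 member of a cytochrome P450 panel assay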
[3] = biological target: T1, Cytochrome P450 1A2 (Homo sapiens, UniProt P05177)
T1 sequence (P05177 whole entry): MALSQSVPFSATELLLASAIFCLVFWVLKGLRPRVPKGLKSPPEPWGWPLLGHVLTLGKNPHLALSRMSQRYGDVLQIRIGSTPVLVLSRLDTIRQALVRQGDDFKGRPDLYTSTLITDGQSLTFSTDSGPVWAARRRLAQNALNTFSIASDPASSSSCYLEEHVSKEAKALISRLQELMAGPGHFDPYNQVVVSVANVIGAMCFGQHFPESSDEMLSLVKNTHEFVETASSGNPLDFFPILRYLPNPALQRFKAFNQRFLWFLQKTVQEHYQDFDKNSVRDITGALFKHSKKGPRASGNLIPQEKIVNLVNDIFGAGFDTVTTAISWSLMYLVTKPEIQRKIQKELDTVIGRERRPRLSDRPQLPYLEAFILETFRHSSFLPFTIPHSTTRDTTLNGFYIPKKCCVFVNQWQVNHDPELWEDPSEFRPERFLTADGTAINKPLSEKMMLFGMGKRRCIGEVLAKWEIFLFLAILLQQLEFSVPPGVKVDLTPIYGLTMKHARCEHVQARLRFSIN

[4] = biological target: 1-phosphatidylinositol 4,5-bisphosphate phosphodiesterase beta-3 (Homo sapiens, UniProt Q01970); experiment: Fluorescence-based biochemical high throughput dose response assay to identify inhibitors of phospholipase C isozymes (PLC-B3).
[5] = biological target: T2, Apoptotic protease-activating factor 1 (Homo sapiens, UniProt O14727); experiment: activation of Apaf-1 mediated apoptosis – fluorescent, uHTS hits, dose response (AID 588554); type: functional
T2 sequence (O14727 whole entry): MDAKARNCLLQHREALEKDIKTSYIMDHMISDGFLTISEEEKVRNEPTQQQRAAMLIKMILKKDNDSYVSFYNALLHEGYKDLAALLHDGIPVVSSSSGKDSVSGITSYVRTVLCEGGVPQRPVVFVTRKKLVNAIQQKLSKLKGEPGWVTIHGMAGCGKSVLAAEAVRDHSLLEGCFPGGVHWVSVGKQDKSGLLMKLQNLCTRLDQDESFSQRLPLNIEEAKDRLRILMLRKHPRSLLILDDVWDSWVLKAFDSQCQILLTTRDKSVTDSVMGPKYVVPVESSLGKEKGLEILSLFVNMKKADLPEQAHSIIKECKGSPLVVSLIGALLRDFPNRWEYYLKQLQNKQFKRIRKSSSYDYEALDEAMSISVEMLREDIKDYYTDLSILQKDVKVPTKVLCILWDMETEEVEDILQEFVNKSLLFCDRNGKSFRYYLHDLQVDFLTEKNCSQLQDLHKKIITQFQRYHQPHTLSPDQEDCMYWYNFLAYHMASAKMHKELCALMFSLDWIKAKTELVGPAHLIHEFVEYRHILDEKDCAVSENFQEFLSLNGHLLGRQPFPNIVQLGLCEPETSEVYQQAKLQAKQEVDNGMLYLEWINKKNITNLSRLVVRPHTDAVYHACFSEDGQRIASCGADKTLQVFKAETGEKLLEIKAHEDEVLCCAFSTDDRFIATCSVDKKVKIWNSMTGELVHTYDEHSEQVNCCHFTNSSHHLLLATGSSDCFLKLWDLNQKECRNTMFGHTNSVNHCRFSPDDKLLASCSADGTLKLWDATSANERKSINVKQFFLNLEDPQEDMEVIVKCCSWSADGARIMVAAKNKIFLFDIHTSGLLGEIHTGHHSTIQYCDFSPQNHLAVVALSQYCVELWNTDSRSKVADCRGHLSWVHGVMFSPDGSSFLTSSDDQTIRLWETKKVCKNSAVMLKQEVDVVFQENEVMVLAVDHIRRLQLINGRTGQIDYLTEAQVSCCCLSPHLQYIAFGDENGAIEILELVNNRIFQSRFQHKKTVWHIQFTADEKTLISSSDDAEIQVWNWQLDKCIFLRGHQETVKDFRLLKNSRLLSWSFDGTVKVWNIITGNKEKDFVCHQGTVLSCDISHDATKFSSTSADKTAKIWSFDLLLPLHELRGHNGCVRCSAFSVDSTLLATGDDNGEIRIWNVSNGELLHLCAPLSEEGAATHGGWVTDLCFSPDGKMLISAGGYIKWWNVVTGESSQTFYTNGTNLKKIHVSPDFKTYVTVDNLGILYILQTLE

[6] = biological target: T3, Small ubiquitin-related modifier 1 (Homo sapiens, UniProt P63165); experiment: inhibitors of SUMO1 partner interactions, dose response, biochemical, FRET (AID 624383); type: functional; conditions: read-out: IC50_Mean
[7] = biological target: T3, Small ubiquitin-related modifier 1; experiment: inhibitors of SUMO1 peptide binding, dose response, biochemical, fluorescence polarization, uHTS hits (AID 624382); type: functional; conditions: read-out: IC50_Mean
[8] = biological target: NAD-dependent protein deacylase sirtuin-5, mitochondrial (Homo sapiens, UniProt Q9NXA8); experiment: SIRT5 desuccinylase inhibitors, dose response, biochemical, fluorescence imaging, cherry-pick, set 5 (AID 720591);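 also: desuccinylation of succinyl peptide AMC substrate read as fluorescence after trypsin release; potency of inhibitors that lower fluorescence and may act on trypsin instead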
[9] = biological target: 1-phosphatidylinositol 4,5-bisphosphate phosphodiesterase gamma-1 (Homo sapiens, UniProt P19174); experiment: Counterscreen for inhibitors of phospholipase C isozymes (PLC-B3): Fluorescence-based biochemical high throughput dose response assay to identify inhibitors of phospholipase C isozymes (PLC-gamma1).
[10] = inhibitors of cytokine-induced nitrite release, dose response, cell-based, Griess absorbance, INS-1E, dry powder, set 3 (AID 488870); type: functional; conditions: Rattus norvegicus
[11] = biological target: Intestinal-type alkaline phosphatase (Homo sapiens, UniProt P09923); experiment: inhibition of human intestinal alkaline phosphatase – biochemical, dose response (AID 488876); type: functional
[12] = THP-1 cell cytotoxicity, dose response, cytotoxicity control for Vif-APOBEC3G degradation inhibitor project, THP-1 cells (AID 1117359); type: functional; conditions: Human immunodeficiency virus 1, THP-1
[13] = inhibitors of Vif binding to APOBEC3G peptide, primary screen, biochemical, TR-FRET, GST-Vif 1-94, biotin-A3G peptide, dose response retest (AID 1117319); type: functional;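 also: TR-FRET signal of purified GST-Vif binding a biotinylated A3G peptide; inhibitors lower the FRET signal by blocking Vif and A3G binding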
[14] = insulin promoter down-regulators in MIN6 cells, imaging, high-content screening, mouse beta cells (AID 1628); type: functional
[15] = biological target: T4, Histone-lysine N-methyltransferase NSD2 (Homo sapiens, UniProt O96028); type: biochemical
T4 sequence (O96028 whole entry): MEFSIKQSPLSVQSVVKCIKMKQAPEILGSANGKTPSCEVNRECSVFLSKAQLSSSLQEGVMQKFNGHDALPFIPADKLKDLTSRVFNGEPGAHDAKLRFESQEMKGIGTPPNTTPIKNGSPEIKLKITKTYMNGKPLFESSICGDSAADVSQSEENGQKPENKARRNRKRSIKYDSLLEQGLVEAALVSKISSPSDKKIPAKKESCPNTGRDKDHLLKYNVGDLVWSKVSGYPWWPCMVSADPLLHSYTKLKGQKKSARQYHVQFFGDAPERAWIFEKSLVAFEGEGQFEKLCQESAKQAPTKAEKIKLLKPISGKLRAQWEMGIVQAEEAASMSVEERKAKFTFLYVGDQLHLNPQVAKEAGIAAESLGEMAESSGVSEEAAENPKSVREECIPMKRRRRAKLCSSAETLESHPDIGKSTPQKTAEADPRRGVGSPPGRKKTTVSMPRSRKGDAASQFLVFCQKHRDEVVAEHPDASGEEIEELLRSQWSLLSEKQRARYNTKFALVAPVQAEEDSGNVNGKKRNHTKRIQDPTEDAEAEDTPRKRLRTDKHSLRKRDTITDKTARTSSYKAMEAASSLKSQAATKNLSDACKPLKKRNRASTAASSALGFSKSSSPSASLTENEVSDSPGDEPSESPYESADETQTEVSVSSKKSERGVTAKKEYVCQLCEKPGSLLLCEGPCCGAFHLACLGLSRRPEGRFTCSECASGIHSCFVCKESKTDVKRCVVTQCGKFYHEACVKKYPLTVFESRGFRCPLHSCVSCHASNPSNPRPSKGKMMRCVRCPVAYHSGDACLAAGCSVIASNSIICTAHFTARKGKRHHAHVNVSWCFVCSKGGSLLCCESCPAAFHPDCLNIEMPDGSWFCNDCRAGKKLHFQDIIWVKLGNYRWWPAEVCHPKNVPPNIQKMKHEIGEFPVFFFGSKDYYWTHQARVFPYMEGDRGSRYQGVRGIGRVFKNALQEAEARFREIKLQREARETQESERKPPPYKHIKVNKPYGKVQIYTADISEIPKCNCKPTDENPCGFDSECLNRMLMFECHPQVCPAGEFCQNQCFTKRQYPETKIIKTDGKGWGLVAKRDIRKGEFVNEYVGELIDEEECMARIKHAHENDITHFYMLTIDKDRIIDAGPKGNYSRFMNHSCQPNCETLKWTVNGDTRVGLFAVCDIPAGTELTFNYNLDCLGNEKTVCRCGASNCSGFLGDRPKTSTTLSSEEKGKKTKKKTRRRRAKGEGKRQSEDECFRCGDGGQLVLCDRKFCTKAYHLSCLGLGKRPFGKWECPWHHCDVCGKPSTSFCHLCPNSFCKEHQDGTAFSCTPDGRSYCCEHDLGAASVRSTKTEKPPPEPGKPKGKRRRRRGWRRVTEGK

[16] = cytotoxicity in MIN6 insulinoma cells, dose response, cytotoxicity control, cell-based, mouse insulinoma (AID 2122); type: functional;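 also: confirmatory high-throughput counterscreen run to flag cytotoxic compounds; mouse MIN-6 beta cells carrying an insulin promoter eGFP reporter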
[17] = biological target: Intestinal-type alkaline phosphatase (Mus musculus, UniProt P24822); experiment: PubChem AID 488785; type: functional
[18] = growth suppression of PTEN-null colon cells, dose response, cell-based, HCT116 PTEN knockout (AID 1047); type: functional;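 also: HCT116 colon tumor cells with PTEN knocked out; cells exposed to compound for 60 hours before readout; potency for loss of cell viability measured by luminescence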
[19] = biological target: T5, Alkaline phosphatase, tissue-nonspecific isozyme (Homo sapiens, UniProt P05186); experiment: TNAP enzyme inhibition by screening hits, dose response, selectivity assay for mouse IAP inhibitor project, biochemical, human TNAP, uHTS hits (AID 488906); type: functional
T5 sequence (P05186 whole entry): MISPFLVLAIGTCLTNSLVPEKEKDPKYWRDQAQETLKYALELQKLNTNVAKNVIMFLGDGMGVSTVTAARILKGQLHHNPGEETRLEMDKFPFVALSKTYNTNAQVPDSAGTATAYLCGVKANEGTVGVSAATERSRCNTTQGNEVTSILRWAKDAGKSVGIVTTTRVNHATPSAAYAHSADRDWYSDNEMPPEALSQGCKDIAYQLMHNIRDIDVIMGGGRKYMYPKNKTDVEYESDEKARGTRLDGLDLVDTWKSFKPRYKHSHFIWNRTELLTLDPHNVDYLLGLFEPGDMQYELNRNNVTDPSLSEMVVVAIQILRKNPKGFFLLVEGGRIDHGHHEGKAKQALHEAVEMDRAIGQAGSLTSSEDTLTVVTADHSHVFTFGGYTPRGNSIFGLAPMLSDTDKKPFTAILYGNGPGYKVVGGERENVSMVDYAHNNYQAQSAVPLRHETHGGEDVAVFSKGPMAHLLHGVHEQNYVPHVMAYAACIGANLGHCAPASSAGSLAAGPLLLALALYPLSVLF

[20] = growth suppression of beta-catenin-knockout colon cells, dose response, cell-based, HCT116, human colon tumor (AID 1045); type: functional;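 also: HCT116 colon tumor cells with beta catenin knocked out; cells exposed to compound for 60 hours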
[21] = Vero cell cytotoxicity, dose response, cytotoxicity control for Vif-APOBEC3G degradation inhibitor project, Vero cells (AID 1117358); type: functional; conditions: Human immunodeficiency virus 1, Vero

T3 sequence (P63165 whole entry): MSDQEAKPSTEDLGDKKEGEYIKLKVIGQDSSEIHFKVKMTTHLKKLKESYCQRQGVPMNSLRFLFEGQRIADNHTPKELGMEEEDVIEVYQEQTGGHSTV
Sequence of Cytochrome P450 2C19 (P33261 whole entry): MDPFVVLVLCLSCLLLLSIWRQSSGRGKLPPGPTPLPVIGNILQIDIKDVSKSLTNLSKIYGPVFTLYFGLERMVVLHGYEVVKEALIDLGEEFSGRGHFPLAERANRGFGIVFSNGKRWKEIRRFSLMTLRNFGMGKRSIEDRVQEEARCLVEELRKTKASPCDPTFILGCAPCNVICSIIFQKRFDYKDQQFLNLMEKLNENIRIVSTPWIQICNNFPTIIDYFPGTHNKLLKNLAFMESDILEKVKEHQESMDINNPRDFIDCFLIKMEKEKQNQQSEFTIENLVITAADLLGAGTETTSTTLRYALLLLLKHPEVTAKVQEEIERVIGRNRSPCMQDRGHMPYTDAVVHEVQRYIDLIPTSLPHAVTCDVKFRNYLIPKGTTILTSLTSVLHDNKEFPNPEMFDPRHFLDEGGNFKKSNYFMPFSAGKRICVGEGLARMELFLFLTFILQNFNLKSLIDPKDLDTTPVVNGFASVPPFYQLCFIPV
Sequence of 1-phosphatidylinositol 4,5-bisphosphate phosphodiesterase beta-3 (Q01970 whole entry): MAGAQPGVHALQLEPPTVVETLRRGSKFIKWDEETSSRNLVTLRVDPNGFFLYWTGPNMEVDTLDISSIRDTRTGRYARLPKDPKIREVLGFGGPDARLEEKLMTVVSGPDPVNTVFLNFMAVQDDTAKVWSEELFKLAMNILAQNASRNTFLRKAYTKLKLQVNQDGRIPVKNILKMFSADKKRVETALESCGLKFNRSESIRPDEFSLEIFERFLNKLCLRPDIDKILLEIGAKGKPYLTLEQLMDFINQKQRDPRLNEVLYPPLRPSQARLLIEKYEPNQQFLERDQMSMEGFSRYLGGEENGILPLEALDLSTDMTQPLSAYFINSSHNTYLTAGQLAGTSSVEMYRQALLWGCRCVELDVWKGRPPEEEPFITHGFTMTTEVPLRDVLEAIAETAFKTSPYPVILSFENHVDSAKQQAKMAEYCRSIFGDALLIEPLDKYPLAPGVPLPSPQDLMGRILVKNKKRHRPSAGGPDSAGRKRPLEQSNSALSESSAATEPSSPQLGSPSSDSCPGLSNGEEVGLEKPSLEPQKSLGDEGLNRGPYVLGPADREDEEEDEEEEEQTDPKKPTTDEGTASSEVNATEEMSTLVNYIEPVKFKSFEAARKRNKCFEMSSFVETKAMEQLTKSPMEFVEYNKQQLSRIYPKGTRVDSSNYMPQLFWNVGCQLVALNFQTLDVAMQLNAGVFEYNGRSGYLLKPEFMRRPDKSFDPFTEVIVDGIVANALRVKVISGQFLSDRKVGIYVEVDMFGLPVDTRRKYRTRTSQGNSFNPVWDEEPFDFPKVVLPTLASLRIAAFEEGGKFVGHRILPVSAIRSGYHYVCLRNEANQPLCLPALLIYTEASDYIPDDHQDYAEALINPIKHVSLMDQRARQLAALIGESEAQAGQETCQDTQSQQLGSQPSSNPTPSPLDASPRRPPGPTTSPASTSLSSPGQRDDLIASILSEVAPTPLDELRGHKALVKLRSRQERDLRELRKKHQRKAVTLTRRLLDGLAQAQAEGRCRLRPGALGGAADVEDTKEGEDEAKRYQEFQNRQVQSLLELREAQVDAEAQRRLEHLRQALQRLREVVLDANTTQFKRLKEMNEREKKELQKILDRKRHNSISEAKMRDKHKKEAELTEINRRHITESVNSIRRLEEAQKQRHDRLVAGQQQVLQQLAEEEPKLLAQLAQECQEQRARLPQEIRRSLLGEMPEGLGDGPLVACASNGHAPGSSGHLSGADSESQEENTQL
Sequence of 1-phosphatidylinositol 4,5-bisphosphate phosphodiesterase gamma-1 (P19174 whole entry): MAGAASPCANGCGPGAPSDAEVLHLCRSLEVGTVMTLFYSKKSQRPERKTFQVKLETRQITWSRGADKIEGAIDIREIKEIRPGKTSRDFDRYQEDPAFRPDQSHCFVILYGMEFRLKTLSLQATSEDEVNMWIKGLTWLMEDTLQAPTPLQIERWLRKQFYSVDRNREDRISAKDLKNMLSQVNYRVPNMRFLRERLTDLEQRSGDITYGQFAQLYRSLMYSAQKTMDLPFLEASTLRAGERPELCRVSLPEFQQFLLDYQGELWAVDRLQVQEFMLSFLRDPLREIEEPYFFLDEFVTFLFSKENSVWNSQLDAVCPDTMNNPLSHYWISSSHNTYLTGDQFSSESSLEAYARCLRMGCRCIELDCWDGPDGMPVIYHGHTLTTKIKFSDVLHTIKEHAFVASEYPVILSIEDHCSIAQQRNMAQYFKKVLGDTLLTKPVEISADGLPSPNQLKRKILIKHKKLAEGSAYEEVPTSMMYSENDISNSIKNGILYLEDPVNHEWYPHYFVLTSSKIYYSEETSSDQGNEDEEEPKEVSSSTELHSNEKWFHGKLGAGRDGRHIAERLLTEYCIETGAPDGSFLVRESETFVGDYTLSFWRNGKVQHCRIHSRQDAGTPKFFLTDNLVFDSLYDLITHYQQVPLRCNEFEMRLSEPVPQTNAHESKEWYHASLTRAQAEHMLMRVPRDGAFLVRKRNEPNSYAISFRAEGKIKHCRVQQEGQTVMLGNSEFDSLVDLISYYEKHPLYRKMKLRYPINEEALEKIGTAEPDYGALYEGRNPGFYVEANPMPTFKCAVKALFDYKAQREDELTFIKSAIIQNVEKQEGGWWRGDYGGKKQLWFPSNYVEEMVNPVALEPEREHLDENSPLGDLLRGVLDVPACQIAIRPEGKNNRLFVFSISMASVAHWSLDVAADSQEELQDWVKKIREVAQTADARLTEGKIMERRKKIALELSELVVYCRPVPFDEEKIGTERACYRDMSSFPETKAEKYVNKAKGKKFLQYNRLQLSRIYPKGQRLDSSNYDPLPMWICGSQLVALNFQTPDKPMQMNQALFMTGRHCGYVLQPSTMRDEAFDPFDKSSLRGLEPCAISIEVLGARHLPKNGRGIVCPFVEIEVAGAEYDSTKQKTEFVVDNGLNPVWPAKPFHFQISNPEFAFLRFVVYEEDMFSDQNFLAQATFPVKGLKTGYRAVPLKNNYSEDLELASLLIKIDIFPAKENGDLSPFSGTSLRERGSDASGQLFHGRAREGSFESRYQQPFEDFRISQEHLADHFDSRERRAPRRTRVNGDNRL
Sequence of Intestinal-type alkaline phosphatase (Homo sapiens, UniProt P09923) (P09923 whole entry): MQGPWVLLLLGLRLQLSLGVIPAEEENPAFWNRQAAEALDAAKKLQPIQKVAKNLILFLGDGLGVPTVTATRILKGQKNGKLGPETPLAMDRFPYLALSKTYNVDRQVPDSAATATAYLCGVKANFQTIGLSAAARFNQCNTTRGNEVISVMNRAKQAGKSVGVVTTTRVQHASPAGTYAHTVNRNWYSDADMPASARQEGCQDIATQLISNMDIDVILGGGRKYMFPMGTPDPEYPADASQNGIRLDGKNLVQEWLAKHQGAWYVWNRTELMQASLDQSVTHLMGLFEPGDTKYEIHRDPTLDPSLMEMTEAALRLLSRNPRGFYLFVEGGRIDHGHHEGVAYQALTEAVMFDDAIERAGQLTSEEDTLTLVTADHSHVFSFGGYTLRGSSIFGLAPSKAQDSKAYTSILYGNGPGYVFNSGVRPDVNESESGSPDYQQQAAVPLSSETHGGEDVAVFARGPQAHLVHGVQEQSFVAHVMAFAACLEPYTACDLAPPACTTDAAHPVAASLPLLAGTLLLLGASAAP
Sequence of NAD-dependent protein deacylase sirtuin-5, mitochondrial (Q9NXA8 whole entry): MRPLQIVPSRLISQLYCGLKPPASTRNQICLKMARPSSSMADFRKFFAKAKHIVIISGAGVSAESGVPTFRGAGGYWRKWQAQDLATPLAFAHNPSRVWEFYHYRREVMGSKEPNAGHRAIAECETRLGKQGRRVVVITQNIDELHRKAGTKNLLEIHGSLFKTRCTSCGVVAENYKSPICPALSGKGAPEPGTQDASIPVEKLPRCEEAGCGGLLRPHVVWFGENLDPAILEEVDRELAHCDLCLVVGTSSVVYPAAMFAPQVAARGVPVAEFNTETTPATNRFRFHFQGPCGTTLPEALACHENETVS
Sequence of Intestinal-type alkaline phosphatase (Mus musculus, UniProt P24822) (P24822 whole entry): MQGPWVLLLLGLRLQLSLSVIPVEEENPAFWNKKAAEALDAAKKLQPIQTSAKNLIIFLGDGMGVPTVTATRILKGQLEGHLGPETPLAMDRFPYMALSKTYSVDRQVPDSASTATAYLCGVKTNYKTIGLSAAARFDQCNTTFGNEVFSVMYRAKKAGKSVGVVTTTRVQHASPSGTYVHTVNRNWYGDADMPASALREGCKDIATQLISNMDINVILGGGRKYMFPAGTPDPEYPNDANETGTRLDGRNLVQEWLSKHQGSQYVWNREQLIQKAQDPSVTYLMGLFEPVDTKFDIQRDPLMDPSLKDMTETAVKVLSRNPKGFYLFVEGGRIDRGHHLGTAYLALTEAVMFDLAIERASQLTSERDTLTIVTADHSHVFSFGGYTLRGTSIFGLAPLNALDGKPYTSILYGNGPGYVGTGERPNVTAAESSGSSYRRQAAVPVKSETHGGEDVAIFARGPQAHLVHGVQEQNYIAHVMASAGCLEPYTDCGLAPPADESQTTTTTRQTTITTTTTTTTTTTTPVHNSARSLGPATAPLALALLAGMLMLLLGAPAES
Sequence of Cytochrome P450 2D6 (P10635 whole entry): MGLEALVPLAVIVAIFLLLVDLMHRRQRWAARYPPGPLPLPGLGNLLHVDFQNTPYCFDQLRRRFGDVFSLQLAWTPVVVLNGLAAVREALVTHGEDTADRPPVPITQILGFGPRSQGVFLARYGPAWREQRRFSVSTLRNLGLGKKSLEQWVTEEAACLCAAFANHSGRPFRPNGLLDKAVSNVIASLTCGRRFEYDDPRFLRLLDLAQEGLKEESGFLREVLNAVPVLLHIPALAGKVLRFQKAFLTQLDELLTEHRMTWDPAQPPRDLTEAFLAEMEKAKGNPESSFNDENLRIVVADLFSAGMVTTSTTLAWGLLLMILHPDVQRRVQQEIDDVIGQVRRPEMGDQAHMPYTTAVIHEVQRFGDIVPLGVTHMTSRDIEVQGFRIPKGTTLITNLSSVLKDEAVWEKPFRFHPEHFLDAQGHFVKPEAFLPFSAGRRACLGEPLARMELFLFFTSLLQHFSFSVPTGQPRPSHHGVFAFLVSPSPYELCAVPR

For `Nc1ccc(S(=O)(=O)Nc2ccnn2-c2ccccc2)cc1` [SULFAPHENAZOLE], the AC50 [1] was “inactive; also recorded: inconclusive”, the AC50 [2] was “inactive” and the AC50 [3] was “inactive”.
With `C=CC1=C(C(=O)O)N2C(=O)[C@@H](NC(=O)/C(=N\OCC(=O)O)c3csc(N)n3)[C@H]2SC1` [CEFIXIME] the IC50 [4] was > 122 µM (inactive), the EC50 [5] was 9.08 µM (active) and the IC50 [6] was 1.48 µM (active). The IC50 [7] was > 66.6 µM (inactive), the AC50 [8] was 17.9 µM (active) and the IC50 [9] was 1.21 µM (active).
With `C[C@@H]1CN([C@@H](C)CO)C(=O)c2cccc(NC(=O)Nc3cccc4ccccc34)c2O[C@H]1CN(C)C(=O)Nc1ccc(C(F)(F)F)cc1` the AC50 [10] was 40.7 µM (active).
With `Cc1cccnc1Nc1nc(-c2ccc(O)c(O)c2)cs1` the IC50 [11] was > 100 µM (inactive), the CC50 [12] was 21.2 µM (active) and the IC50 [13] was > 51.1 µM (active). The IC50 [14] was 8.95 µM (active), the AC50 [15] was > 20 µM (inactive) and the IC50 [16] was 9.5 µM (active). For the same compound, the IC50 [17] was 4.03 µM (active), the EC50 [18] was 13.3 µM (active) and the IC50 [19] was > 100 µM (inactive). For the same compound, the EC50 [20] was 13.6 µM (active) and the CC50 [21] was > 40 µM (active).
